Consider two molecules from ChEMBL document CHEMBL4825753 (J Med Chem, 2021).

The test system of series [1] is BaF3. The series is described as follows: Growth inhibition of mouse BaF3 cells transfected with MER assessed as inhibition of cell growth incubated for 72 hrs by Cell-titer-Glo assay. The format is functional.
Series [2] concerns BaF3. In words: Growth inhibition of mouse BaF3 cells transfected with AXL assessed as inhibition of cell growth incubated for 72 hrs by Cell-titer-Glo assay. The format is functional.
Series [3] deals with BaF3. The series is described as follows: Growth inhibition of mouse BaF3 cells transfected with FLT3 assessed as inhibition of cell growth incubated for 72 hrs by Cell-titer-Glo assay. It counts as functional.
The subject of series [4] is BaF3. The series is described as follows: Growth inhibition of mouse BaF3 cells assessed as inhibition of cell growth incubated for 72 hrs by Cell-titer-Glo assay. It counts as functional.
Series [5] deals with BaF3. In words: Antitumour activity against mouse BaF3 cells transfected with MER implanted in C57BL/6J mouse assessed as reduction in tumour growth at 100 mg/kg, po bid for 6 days. It counts as functional, organism-based. The conditions noted are these: time 6.0 day.
The test system of series [6] is BaF3. The series is described as follows: Antitumour activity against mouse BaF3 cells transfected with AXL implanted in C57BL/6J mouse assessed as reduction in tumour growth at 3 to 100 mg/kg, po bid for 6 days. It counts as functional, organism-based. The following applies: dose 3-100 mg/kg, time 6.0 day.
Series [7] is described as follows: Fraction unbound in C57BL/6J mouse implanted with mouse BaF3 cells transfected with AXL in at 3 to 100 mg/kg, po bid for 6 days. The following applies: in vivo, dose 3-100 mg/kg, time 6 day. The format is ADME, organism-based.
The subject of series [8] is BaF3. The series is described as follows: Antitumour activity against mouse BaF3 cells transfected with MER implanted in C57BL/6J mouse assessed as reduction in MER phosphorylation at 30 to 100 mg/kg, po bid for 6 days by western blot analysis. The format is functional, organism-based. The following applies: dose 30-100 mg/kg, time 6.0 day. A general note: A western blot detects proteins with antibodies after separation by electrophoresis.

The test system of series [9] is BaF3. In words: Antitumour activity against mouse BaF3 cells transfected with AXL implanted in C57BL/6J mouse assessed as reduction in AXL phosphorylation at 30 to 100 mg/kg, po bid for 6 days western blot analysis. The format is functional, organism-based. The following applies: dose 30-100 mg/kg, time 6.0 day.
Series [10] relates to MC-38. The series is described as follows: Antitumour activity against mouse MC38 cells implanted in C57BL6 mouse assessed as increase in survival at 100 mg/kg, po bid for 2 weeks co-treatment with anti-PD1 further treated with ionizing radiation. It counts as functional, organism-based.
Series [11] is described as follows: Photostability of compound assessed as half life. It counts as physicochemical.

Activity calls are given as the source filed them. The rule behind the calls is not given here.

Broadly, the GI50 is the concentration giving 50% growth inhibition. One may read the fraction unbound as the share of the substance not bound to proteins or other matrix. For the molecule `Cc1cc(-c2c(C)nn(C)c2C)cnc1-c1nnc(N(C)Cc2ccc3ncc(-c4ccc(CN(C)C)cc4)n3c2)o1`, the concentration for 50% growth inhibition (GI50) in series [1] is 0.0251 µM; in series [2] it was 0.1 µM; in [3] it was 3.16 µM; in series [4], 3.98 µM. For the same molecule, the outcome in series [5], in [6], in series [8], in series [9] and in [10] was Active. This molecule yielded an unbound share (fraction unbound) at 144 h in series [7] of 0.076.
The term half-life denotes the time in which the quantity being followed falls by half. Regarding `Cc1cc(-c2c(C)nn(C)c2C)ccc1-c1nnc(N(C)Cc2ccc3nccn3c2)o1`, the half-life in series [11] was 69 h.
